Measurements from ChEMBL document CHEMBL3507680, “University of Dundee, Gates Library screen for HepG2 cell viability”.

Assay: Human HepG2 cell viability assay in 384 well format
Assay type: toxicity, cell-based
Parameters: dose 125 nL, time 70.5 hour; concentration not given beside the values
Settings: HepG2 cells, read-out: Inhibition

Structure (SMILES)	cytotoxicity at 70.5 h [%]
CC(CN1CCOCC1)OC(=O)c1ccccc1Cl (configuration not stated)	-19.2
COc1ccc(NC(=O)C2CC(=O)n3cnnc3S2)cc1 (configuration not stated)	2.23
CCCc1ncc(C(=O)c2ccc(OC)cc2)n1C	14.7
O=C(CN1CCN(C(=O)c2ccccc2)CC1)Nc1ccc(Br)cn1	-8.87
N#Cc1c2n(c3c(N)ncnc13)CCCCC2	16.8
CCC1(CC)C(=O)NC(=O)N/C1=N/c1cccc(OC)c1	26.5
CNCc1cc(C)n(-c2ccccc2OC)c1C	-5.13
Nc1cccnc1N1CCN(c2ccccc2)CC1	-0.724
O=C(O)CCn1ccc(=O)c2cc(F)ccc21	-11.9
Cn1nc(-c2ccccc2)c(Cl)c1C(=O)O	-25.8
O=C(O)c1cn(-c2ccccn2)c(=O)c2ccccc12	-11.1
COc1ccc(-c2noc(C(N)CCSC)n2)cc1 (configuration not stated)	23.9
COc1ccc(-c2noc(C(N)CCSC)n2)cc1OC (configuration not stated)	-3.12
CCCOc1ccc(CC2=NC(C)(CO)CO2)cc1 (configuration not stated)	12
COC(=O)N1CC[C@@]2(O)CCCC[C@H]2[C@@H]1c1ccc2c(c1)OCO2	-4.3
O=C1Nc2ccccc2/C1=C1\CCCCCN1	-9.34
Cc1ccc(C(=O)N2CC[C@@]3(O)CCCC[C@H]3C2)cc1	7.79
CC[C@]12CN3C[C@](CC)(CN(C1)C3c1[nH]c(=O)[nH]c(=O)c1C)C2=O (some centres not stated)	19.3
CC[C@]12CN3C[C@](C)(CN(C1)C3c1[nH]c(=O)[nH]c(=O)c1C)C2=O (some centres not stated)	-2.75
CC(C)CCN1C(=O)C2(NC(=O)c3ccccc3O2)c2ccccc21 (configuration not stated)	-15.1
COCCN1C(=O)c2ccc(C(=O)NCCc3c[nH]cn3)cc2C1=O	-5.32
CNC(=O)c1cn(C)c(-c2nc3cc(NC(C)=O)ccc3n2C)c1OC	-17.5
CSCC[C@H](NC(=O)CCn1ccc2c(Cl)cccc21)C(=O)O	-2.74
COc1ccc2c(ccn2CCC(=O)NCCCC(=O)O)c1	-10.4

Structure (SMILES)	cytotoxicity at 70.5 h [%]
Cc1cc2ccccc2n1CC(=O)N[C@@H](C)C(=O)O	-19.5
CSCC[C@H](NC(=O)CCn1cc(C(C)=O)c2ccccc21)C(=O)O	-8.28
COc1cccc(-c2nc(C)c(C(=O)N[C@@H](CC(C)C)C(=O)O)s2)c1	-18.1
Cn1ccc2c(C(=O)N3CC[C@@]4(O)CCCC[C@H]4C3)cccc21	0.292
COc1cccc2c1ccn2CCNC(C)=O	-16.2
COc1cc2nc(C)n(CC(=O)NCC(C)C)c(=O)c2cc1OC	-15.9
COc1cc2nc(C)n(CC(=O)NCCN(C)C)c(=O)c2cc1OC	-17.2
COc1ccc(C2CC(=O)Oc3cc(C)[nH]c(=O)c32)cc1O (configuration not stated)	-19.6
COc1cc(C2CC(=O)Oc3cc(C)[nH]c(=O)c32)ccc1OCC(=O)O (configuration not stated)	-14.1
O=C(NCCO)c1cc(-c2ccc3c(c2)CCO3)n[nH]1	18
CN(C)CCCNC(=O)c1cc(-c2ccc3c(c2)CCO3)n[nH]1	10.7
CC1(CO)COC(Cc2ccc(Cl)cc2)=N1 (configuration not stated)	21
CC[S+](CC)[c-]1c(=O)[nH]c(=O)n(CCc2ccc(F)cc2)c1=O	3.7
C[S+](C)[c-]1c(=O)[nH]c(=O)n(CCc2ccc(F)cc2)c1=O	-2.07
O=C1OC2(CCNCC2)CN1CC(=O)N1CCCC1c1nccs1 (configuration not stated)	-7.02
COCCn1ccnc1CN(Cc1ccccn1)CC(C)C	-6.56
O=C(c1cc(Cn2cnc3ccccc32)on1)N1CCOCC1	-17.3
Cc1c(C(=O)NC2CCCC2)nnn1-c1ccccc1	-8.58
CCN(CCc1nc2cc(C)ccc2[nH]1)C(=O)[C@@H](N)Cc1c[nH]cn1	-11.4
CN(Cc1noc(-c2ccccc2)n1)C(=O)CSc1nnc(N)s1	14.3
COc1ccc2c(c1)C(C(=O)N(C)CCCc1nccn1C)CC(=O)N2 (configuration not stated)	5.74
COCCn1cncc1Cn1ncc2ccccc2c1=O	-4.19
CN(CC(=O)Nc1ccon1)S(=O)(=O)c1cc(Cl)ccc1Cl	23.9
Cc1nc(N2CCC(C(O)c3nccn3C)CC2)c2nc(C)oc2n1 (configuration not stated)	-5.83

Structure (SMILES)	cytotoxicity at 70.5 h [%]
Cc1cccc(-n2c(C)cc(=O)[nH]c2=O)c1C	-4.81
O=C1NCCCC12CCN(c1nc3c(c(C(F)(F)F)n1)CCCC3)C2 (configuration not stated)	-6
Cc1cc(NC(=O)CCn2cncn2)no1	5.52
COC(=O)NCC(=O)N(C)CC1Cc2ccccc2CN1C (configuration not stated)	-2.82
CCN1CCN(S(=O)(=O)c2cnc(NC(C)=O)s2)CC1	17.3
COc1cc(NC(=O)NCc2ccccn2)cc(OC)c1	8.5
Cc1ccccc1CN(CCN(C)C)Cc1ccccc1C(=O)O	-7.13
Cc1cc(NCCNc2ncccc2C)n2nc(C)cc2n1	-15.2
O=C(N1CCOCC1)N1CCCC1c1nc(-c2ccccn2)no1 (configuration not stated)	-8.93
COc1cccc(CC2CN(C3CC(C)(C)NC(C)(C)C3)CCO2)c1 (configuration not stated)	50.4
CN(Cc1ccccc1Cl)C(=O)c1cc(CN2CCC(O)CC2)on1	-17.3
CCc1ccccc1OCCNCCc1c[nH]cn1	29.6
COc1cccc(-c2ncc(CN3CCOCC(O)C3)s2)c1 (configuration not stated)	-6.59
COc1ccc(OCCN2CCCN(Cc3noc(C)n3)CC2)cc1	30.5
O=C(NCCn1ccnc1)c1ccn(-c2ccccc2)n1	-1.21
Cc1nnc(CN2CCCC2c2c(C)nn(C)c2Cl)o1 (configuration not stated)	-11.6
Cc1nn(C)c(Cl)c1C1CCCN1Cc1nc(C2CC2)no1 (configuration not stated)	-7.26
CC(C)c1nccn1C1CCCN(C(=O)c2cc(C3CC3)on2)C1 (configuration not stated)	-3.7
Cc1nccc(-c2cccc(NCC(=O)N3CCCC(C)C3)c2)n1 (configuration not stated)	-9.5
Cc1noc(NC(=O)c2ccc(C#N)cc2)n1	-7.88
Cc1noc(NC(=O)c2ccc(Br)o2)n1	-9.68
CCc1nc(C)c(C(=O)NCCNC(=O)c2cccs2)s1	15.7
Cc1ccc(C(O)CNC(=O)NCc2c(C)cc(C)[nH]c2=O)cc1 (configuration not stated)	-9.83
Cc1cc(C)c(CNC(=O)NCC(O)c2ccc(Cl)cc2)c(=O)[nH]1 (configuration not stated)	-4.37

Structure (SMILES)	cytotoxicity at 70.5 h [%]
Cc1ccc(C(=O)NCC(O)c2cccc(F)c2)c(=O)[nH]1 (configuration not stated)	-0.0981
Cc1cc(C)c(CNC(=O)NCc2cc(F)cc(F)c2)c(=O)[nH]1	-3.54
Cc1cc(C)c(CNC(=O)NCC(O)c2ccccc2)c(=O)[nH]1 (configuration not stated)	-1.05
COC(CNC(=O)NCc1c(C)cc(C)[nH]c1=O)c1ccccc1 (configuration not stated)	-12.2
COc1ccccc1CN(C)C(=O)NCc1c(C)cc(C)[nH]c1=O	-0.543
Cc1cc(C)c(CNC(=O)N(C)Cc2cccc(C#N)c2)c(=O)[nH]1	-1.75
Cc1ccccc1-n1c(C)cc(C(=O)N2CCn3c(C)nnc3C2)c1C	-1.44
Cc1nnc2n1CCN(C(=O)c1cc(C)n(-c3ccccc3)c1C)C2	-4.87
CCOc1ccnc(N2CCN(C(=O)c3ccc(C#N)cc3)CC2)n1	2.75
CCOc1ccnc(N2CCN(C(=O)c3ccncc3)CC2)n1	-9.15
CC(NC(=O)NCc1c(F)cccc1Cl)(C(=O)O)c1ccco1 (configuration not stated)	-8.24
Cc1cnn(CC2CCCCN2C(=O)c2c(C)noc2C)c1 (configuration not stated)	-0.615
Cc1ncc2c(n1)CN(CC(=O)NCCOc1ccccc1)CC2	-11.5
c1ccc(-n2ccc(CNCC3CCCN3c3cccnn3)n2)cc1 (configuration not stated)	0.819
CC(C)c1n[nH]c(C2CN(C(=O)c3cnccn3)CCO2)n1 (configuration not stated)	18.8
CCc1noc(C)c1C(=O)N1CCCC1Cn1cccn1 (configuration not stated)	-3.75
O=C(NCc1ccccc1Cn1cncn1)C1CC1	-11.8
CC(NC(=O)CSCC#N)c1cccc(Cl)c1 (configuration not stated)	-9.11
O=C(CCC1CCCO1)NCc1ccccc1Cn1cncn1 (configuration not stated)	-9.42
CCc1nc(C(=O)N2CCCC2)nn1-c1c(Cl)cccc1Cl	-2.51
C=C(C)CN1CCC(NC(=O)c2scnc2C)CC1	-5.87
Cc1nn(C)c(N2CCOCC2)c1CNC(C)c1cccs1 (configuration not stated)	-1.47
Cc1nccn1-c1cc(CNC(=O)C2CCCO2)ccn1 (configuration not stated)	-7.47
Cc1cnc(C(=O)N2CCCC(n3cccn3)C2)cn1 (configuration not stated)	-1.48

Structure (SMILES)	cytotoxicity at 70.5 h [%]
COc1ccccc1OCCNC(=O)CN1CCc2cncnc2C1	-5.72
CC(C)(C)c1n[nH]c(C2CN(C(=O)C3=COCCC3)CCO2)n1 (configuration not stated)	-6.48
Cc1nc(C(=O)N2CCOC(c3nc(C(C)C)n[nH]3)C2)c[nH]1 (configuration not stated)	-2.01
COc1c(CNCc2ccc3c(c2)OCCO3)c(C(C)C)nn1C	-6.06
Cc1[nH]nc2ncc(C(=O)N3CCN(CCC(C)C)CC3)cc12	25.8
Cc1noc(C(C)N2CCN(Cc3ccco3)CC2)n1 (configuration not stated)	-11.9
O=C(NCCN1CCCS1(=O)=O)c1scnc1Cl	-24.6
O=C(CCc1ccco1)Nc1cc(C(F)(F)F)c[nH]c1=O	-8.18
CC1CCCN(CCNC(=O)c2scnc2Cl)C1 (configuration not stated)	-7.04
CN(Cc1ccco1)C(=O)Nc1cc(C(F)(F)F)c[nH]c1=O	-14.9
CC(=O)N1CCCN(C(=O)CCc2c(C)nc3ccnn3c2C)CC1	-15.3
COc1ccnc(N2CCN(C(=O)CN3CCOCC3)CC2)n1	8.59
CCS(=O)(=O)N1CCN(C(=O)c2cnc3[nH]nc(C)c3c2)CC1	-5.38
CCn1ccnc1CN1CCN(CCOc2ccccc2C#N)CC1	-19.6
O=C(COCc1ccco1)Nc1cc(C(F)(F)F)c[nH]c1=O	31.5
Cc1nc(CN2CCc3nn(C)c(=O)cc3C2)oc1C	-9.42
CC(=O)Nc1nc(C(=O)N2CCCC(n3nc(C)nc3C)C2)cs1 (configuration not stated)	-10.7
Nc1cccnc1N1CCCCCC1	2.46
CC(CN1CCOCC1)OC(=O)c1ccccc1I (configuration not stated)	-15.6
CC(C)c1nn(C)c(Cl)c1CNCc1ccc2c(c1)OCO2	-5.25
COc1no[n+]([O-])c1-c1ccccc1	2.46
